From patent EP4737445A1, “NOVEL SATURATED HETEROCYCLE-SUBSTITUTED HETEROARYL-CARBONOHYDRAZONOYL DICYANIDE COMPOUND AND USE THEREOF” (Korea Institute of Science and Technology, priority 2023, dated 2025) come the findings set out here.

Assay type in all cases: in vitro ADME
In one series the target is T1, CYP1A2 (Homo sapiens, UniProt P05177).
T1 construct: human liver microsomes (0.25 mg/mL); from tissue; host or cells: human liver microsomes
T1 sequence (P05177 1-516): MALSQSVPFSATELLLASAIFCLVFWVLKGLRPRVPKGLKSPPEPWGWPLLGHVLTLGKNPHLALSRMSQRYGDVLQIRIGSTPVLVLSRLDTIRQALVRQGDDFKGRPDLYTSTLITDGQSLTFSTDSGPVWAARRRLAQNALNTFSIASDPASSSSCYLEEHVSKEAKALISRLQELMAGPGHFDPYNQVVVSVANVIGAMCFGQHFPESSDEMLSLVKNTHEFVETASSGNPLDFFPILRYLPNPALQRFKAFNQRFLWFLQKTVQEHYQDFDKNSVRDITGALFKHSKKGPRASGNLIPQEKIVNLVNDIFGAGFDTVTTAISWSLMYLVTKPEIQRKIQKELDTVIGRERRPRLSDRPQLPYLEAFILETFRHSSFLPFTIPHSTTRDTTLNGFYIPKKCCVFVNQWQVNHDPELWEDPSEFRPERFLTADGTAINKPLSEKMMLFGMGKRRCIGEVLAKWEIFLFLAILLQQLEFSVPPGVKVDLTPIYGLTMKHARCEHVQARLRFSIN
Kind of series: CYP isoenzyme activity inhibition in human liver microsomes, CYP1A2. As to conditions: 10 µM compound; human liver microsomes 0.25 mg/mL; relative to control without compound. How it is done:
(§1) The CYP isoenzyme activity inhibitory effect by the compounds prepared according to Examples 1 to 46 was confirmed. Specifically, human liver microsomes (0.25 mg/mL), 0.1 M phosphate buffer solution (pH 7.4), a substrate drug cocktail of five drug metabolizing enzymes (Phenacetin 50 µM, Diclofenac 10 µM, S-mephenytoin 100 µM, Dextromethorphan 5 µM, and Midazolam 2.5 µM), and the compounds were added at concentrations of 0 or 10 µM, respectively, and pre-incubated at 37°C for 5 minutes, and then NADPH generation system solution was added and incubated at 37°C for an additional 15 minutes. Thereafter, an acetonitrile solution containing an internal standard (Terfenadine) was added to terminate the reaction, and after centrifugation for 5 minutes (14,000 rpm, 4°C), the supernatant was injected into an LC-MS/MS system to simultaneously analyze the metabolites of the substrate drugs, thereby evaluating the drug metabolizing enzyme inhibitory activity.
(§2) The metabolites of each CYP isoenzyme marker drug generated through the reaction were analyzed using a Shimadzu Nexera XR system and TSQ vantage (Thermo). A Kinetex C18 (2.1 × 100 mm, 2.6 µm, particle size; Phenomenex, USA) was used as the HPLC column, and (A) distilled water containing 0.1% formic acid and (B) acetonitrile containing 0.1% formic acid were used as mobile phases, and a gradient program as shown in Table 6 below was applied.
(§3) The generated metabolites were quantified using MRM (Multiple Reaction Monitoring) quantitative mode, and Xcalibur (version 1.6.1) was used for data analysis. To show the CYP isoenzyme activity inhibitory effect of the novel compounds prepared according to the Examples of the disclosure, the % activity of CYP isoenzymes relative to the control group without compound addition is shown in Table 6 below. Additionally, to confirm the difference in effect according to substituents, Comparative Compounds 1 and 5, which are two compounds that share a similar parent nucleus structure with Compounds 1 to 46 of the disclosure while Cy is substituted with aromatic heteroaryl instead of saturated heterocyclyl, were selected as comparative compounds and their activities are shown together.

Series [1] can be described thus: Liver microsomal stability, rat. The note with it: 1 µM compound; 0.5 mg/mL microsomes; NADPH; 30 minutes at 37°C. As to the method:
Liver microsomal stability by the compounds prepared according to Examples 1 to 46 was confirmed. Specifically, four types of liver microsomes (human, dog, rat, and mouse each at 0.5 mg/mL), 0.1 M phosphate buffer solution (pH 7.4), and the compounds at 1 µM concentration were added and pre-incubated at 37°C for 5 minutes, and then NADPH generation system solution was added and incubated at 37°C for an additional 30 minutes. Thereafter, an acetonitrile solution containing an internal standard (chloropropamide) was added to terminate the reaction, and after centrifugation for 5 minutes (14,000 rpm, 4°C), the supernatant was injected into an LC-MS/MS system to analyze the substrate drug, thereby evaluating the metabolic stability of 8 compounds.
The amount of remaining substrate through the reaction was analyzed using a Shimadzu Nexera XR system and TSQ vantage (Thermo). A Kinetex XB-C18 (2.1 × 100 mm, 2.6 µm, particle size; Phenomenex, USA) was used as the HPLC column, and (A) distilled water containing 0.1% formic acid and (B) acetonitrile containing 0.1% formic acid were used as mobile phases. Analyst software (version 1.6.3) and Xcalibur (version 1.6.1) were used for data analysis. The calculated results are shown in Table 5 below: Liver microsomal stability data of novel compounds from […] (human, rat, and mouse).

The target of another series is T2, CYP2C19 (Homo sapiens, UniProt P33261).
T2 construct: human liver microsomes (0.25 mg/mL); from tissue; host or cells: human liver microsomes
Description: CYP isoenzyme activity inhibition in human liver microsomes, CYP2C19. As to conditions: 10 µM compound; human liver microsomes 0.25 mg/mL; relative to control without compound. How it is done: as §1, §2, §3
(In general: Liver microsomes are a subcellular fraction often used to study metabolism.)

A further series concerns the target T3, CYP2D6 (Homo sapiens, UniProt P10635).
T3 construct: human liver microsomes (0.25 mg/mL); from tissue; host or cells: human liver microsomes
Kind of series: CYP isoenzyme activity inhibition in human liver microsomes, CYP2D6. As to conditions: 10 µM compound; human liver microsomes 0.25 mg/mL; relative to control without compound. How it is done: as §1, §2, §3

The next series concerns the target T4, CYP2C9 (Homo sapiens, UniProt P11712).
T4 construct: human liver microsomes (0.25 mg/mL); from tissue; host or cells: human liver microsomes
Description: CYP isoenzyme activity inhibition in human liver microsomes, CYP2C9. The note with it: 10 µM compound; human liver microsomes 0.25 mg/mL; relative to control without compound. As to the method:
as §1, §2, §3

T2 sequence (P33261 whole entry): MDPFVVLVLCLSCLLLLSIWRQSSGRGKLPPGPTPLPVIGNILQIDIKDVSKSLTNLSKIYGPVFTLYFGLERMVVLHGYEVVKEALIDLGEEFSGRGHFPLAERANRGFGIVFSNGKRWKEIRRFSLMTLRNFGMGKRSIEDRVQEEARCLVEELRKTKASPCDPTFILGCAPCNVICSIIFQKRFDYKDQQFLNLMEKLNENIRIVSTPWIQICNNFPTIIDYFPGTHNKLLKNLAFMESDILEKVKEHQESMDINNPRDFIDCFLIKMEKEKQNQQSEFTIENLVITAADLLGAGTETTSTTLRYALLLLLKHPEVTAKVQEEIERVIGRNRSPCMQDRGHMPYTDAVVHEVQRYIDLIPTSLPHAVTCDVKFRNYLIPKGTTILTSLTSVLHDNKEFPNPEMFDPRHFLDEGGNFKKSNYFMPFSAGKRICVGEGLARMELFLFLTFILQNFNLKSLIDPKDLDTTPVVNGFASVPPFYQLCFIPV
T4 sequence (P11712 whole entry): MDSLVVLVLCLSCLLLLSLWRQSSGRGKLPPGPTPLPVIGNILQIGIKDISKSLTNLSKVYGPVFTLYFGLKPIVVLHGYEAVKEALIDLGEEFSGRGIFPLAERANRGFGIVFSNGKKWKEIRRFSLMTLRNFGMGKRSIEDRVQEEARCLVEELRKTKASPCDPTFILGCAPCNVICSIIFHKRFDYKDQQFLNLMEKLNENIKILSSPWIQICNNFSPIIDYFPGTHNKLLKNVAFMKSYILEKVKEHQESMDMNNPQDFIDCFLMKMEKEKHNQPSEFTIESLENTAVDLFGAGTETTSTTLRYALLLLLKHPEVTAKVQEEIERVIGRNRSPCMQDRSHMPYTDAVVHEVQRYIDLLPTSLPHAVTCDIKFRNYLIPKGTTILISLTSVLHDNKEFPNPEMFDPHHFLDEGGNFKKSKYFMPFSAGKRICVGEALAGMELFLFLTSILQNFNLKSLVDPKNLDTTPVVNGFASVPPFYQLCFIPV
T3 sequence (P10635 whole entry): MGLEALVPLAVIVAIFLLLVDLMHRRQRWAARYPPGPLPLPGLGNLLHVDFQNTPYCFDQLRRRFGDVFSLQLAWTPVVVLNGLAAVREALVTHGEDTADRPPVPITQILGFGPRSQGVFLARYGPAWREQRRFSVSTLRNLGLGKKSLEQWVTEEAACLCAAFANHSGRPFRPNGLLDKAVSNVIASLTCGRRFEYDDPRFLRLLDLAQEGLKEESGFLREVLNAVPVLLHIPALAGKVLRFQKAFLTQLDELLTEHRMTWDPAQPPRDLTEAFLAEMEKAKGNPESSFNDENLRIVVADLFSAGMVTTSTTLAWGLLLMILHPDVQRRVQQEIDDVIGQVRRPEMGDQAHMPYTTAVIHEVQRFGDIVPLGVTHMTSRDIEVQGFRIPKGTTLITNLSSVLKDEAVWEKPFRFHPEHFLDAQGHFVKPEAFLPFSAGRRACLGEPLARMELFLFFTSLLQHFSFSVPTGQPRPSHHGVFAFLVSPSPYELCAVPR

As for `N#CC(C#N)=NNc1ccc2sc(N3CCOCC3)nc2c1` [Compound 1, (2-morpholinobenzo[d]thiazol-5-yl)carbonohydrazonoyl dicyanide], the “CYP1A2 (% activity)” value on CYP1A2 stood at 80.2 % activity. Further, in series [1], the “Rat microsomes (% remaining)” value came to 2.1 % remaining. Further, the “CYP2C19 (% activity)” value at CYP2C19 is over 100 % activity. Also, the “CYP2D6 (% activity)” value at CYP2D6 is over 100 % activity. Besides, the “CYP2C9 (% activity)” value on CYP2C9 turned out to be 82.5 % activity.

With `N#CC(C#N)=NNc1ccc2nc(N3CCOCC3)sc2c1` [Compound 2, (2-morpholinobenzo[d]thiazol-6-yl)carbonohydrazonoyl dicyanide], the “CYP1A2 (% activity)” value at CYP1A2 is listed as 81.7 % activity. The “Rat microsomes (% remaining)” value in series [1] is on record as 55.2 % remaining. Moreover, the “CYP2C19 (% activity)” value at CYP2C19 is 96.7 % activity. Also, on CYP2D6, the “CYP2D6 (% activity)” value is given as over 100 % activity. For the same compound, the “CYP2C9 (% activity)” value on CYP2C9 is 95.1 % activity.

For `N#CC(C#N)=NNc1ccc2oc(N3CCOCC3)nc2c1` [Compound 3, (2-morpholinobenzo[d]oxazol-5-yl)carbonohydrazonoyl dicyanide], the “CYP1A2 (% activity)” value at CYP1A2 came out at 99.9 % activity. For the same compound, the “Rat microsomes (% remaining)” value in series [1] was 73.0 % remaining. In addition, the “CYP2C19 (% activity)” value at CYP2C19 is over 100 % activity. In addition, the “CYP2D6 (% activity)” value at CYP2D6 is over 100 % activity. For the same compound, the “CYP2C9 (% activity)” value on CYP2C9 is given as over 100 % activity.

For the compound `N#CC(C#N)=NNc1ccc2nc(N3CCOCC3)oc2c1` [Compound 4, (2-morpholinobenzo[d]oxazol-6-yl)carbonohydrazonoyl dicyanide], at CYP1A2, the “CYP1A2 (% activity)” value came to 86.8 % activity. Besides, the “Rat microsomes (% remaining)” value in series [1] is on record as 80.9 % remaining. In addition, the “CYP2C19 (% activity)” value at CYP2C19 is given as 93.4 % activity. Further, the “CYP2D6 (% activity)” value on CYP2D6 is reported as over 100 % activity. Moreover, the “CYP2C9 (% activity)” value on CYP2C9 was 93.2 % activity.

Regarding `Cn1c(N2CCOCC2)nc2ccc(NN=C(C#N)C#N)cc21` [Compound 5, (1-methyl-2-morpholino-1H-benzo[d]imidazol-6-yl)carbonohydrazonoyl dicyanide], the “CYP1A2 (% activity)” value on CYP1A2 is given as 84.3 % activity. In addition, the “Rat microsomes (% remaining)” value in series [1] was 77.8 % remaining. Also, the “CYP2C19 (% activity)” value on CYP2C19 came to 90.2 % activity. In addition, the “CYP2D6 (% activity)” value on CYP2D6 is on record as over 100 % activity. Besides, the “CYP2C9 (% activity)” value on CYP2C9 was 98 % activity.

Regarding `Cn1c(N2CCOCC2)nc2cc(NN=C(C#N)C#N)ccc21` [Compound 6, (1-methyl-2-morpholino-1H-benzo[d]imidazol-5-yl)carbonohydrazonoyl dicyanide], on CYP1A2, the “CYP1A2 (% activity)” value was determined as 92.3 % activity. The “Rat microsomes (% remaining)” value in series [1] came to 66.1 % remaining. On CYP2C19, the “CYP2C19 (% activity)” value was 98.4 % activity. Further, the “CYP2D6 (% activity)” value on CYP2D6 was over 100 % activity. Also, on CYP2C9, the “CYP2C9 (% activity)” value is on record as over 100 % activity.

For the compound `CN1CCN(c2nc3ccc(NN=C(C#N)C#N)cc3s2)CC1` [Compound 8, (2-(4-methylpiperazin-1-yl)benzo[d]thiazol-6-yl)carbonohydrazonoyl dicyanide], the “CYP1A2 (% activity)” value at CYP1A2 amounted to 91.8 % activity. In addition, the “Rat microsomes (% remaining)” value in series [1] is reported as 76.6 % remaining. Moreover, the “CYP2C19 (% activity)” value on CYP2C19 is over 100 % activity. For the same compound, the “CYP2D6 (% activity)” value on CYP2D6 was over 100 % activity. Besides, on CYP2C9, the “CYP2C9 (% activity)” value was over 100 % activity.

For `COC1CCN(c2nc3ccc(NN=C(C#N)C#N)cc3s2)CC1` [Compound 9, (2-(4-methoxypiperidin-1-yl)benzo[d]thiazol-6-yl)carbonohydrazonoyl dicyanide], the “CYP1A2 (% activity)” value at CYP1A2 is listed as 68.9 % activity. Further, the “Rat microsomes (% remaining)” value in series [1] came to 17.7 % remaining. In addition, the “CYP2C19 (% activity)” value at CYP2C19 was determined as 86.9 % activity. For the same compound, the “CYP2D6 (% activity)” value at CYP2D6 is recorded as over 100 % activity. For the same compound, the “CYP2C9 (% activity)” value at CYP2C9 came to 60.7 % activity.

For the compound `CC1CN(c2nc3ccc(NN=C(C#N)C#N)cc3s2)CC(C)O1` (stereo not drawn) [Compound 10, (2-(2,6-dimethylmorpholino)benzo[d]thiazol-6-yl)carbonohydrazonoyl dicyanide], on CYP1A2, the “CYP1A2 (% activity)” value is listed as 68.4 % activity. Besides, in series [1], the “Rat microsomes (% remaining)” value was 84.8 % remaining. Further, the “CYP2C19 (% activity)” value on CYP2C19 is reported as 83.6 % activity. The “CYP2D6 (% activity)” value on CYP2D6 is 93.8 % activity. Moreover, on CYP2C9, the “CYP2C9 (% activity)” value is given as 76.8 % activity.

Take `N#CC(C#N)=NNc1ccc2nc(N3C4CCC3COC4)sc2c1` [Compound 11, (2-(3-oxa-8-azabicyclo[3.2.1]octan-8-yl)benzo[d]thiazol-6-yl)carbonohydrazonoyl dicyanide]: the “CYP1A2 (% activity)” value at CYP1A2 is recorded as 83.7 % activity. For the same compound, in series [1], the “Rat microsomes (% remaining)” value amounted to 73.9 % remaining. On CYP2C19, the “CYP2C19 (% activity)” value was determined as 80.3 % activity. Moreover, the “CYP2D6 (% activity)” value at CYP2D6 is given as 98.6 % activity. The “CYP2C9 (% activity)” value on CYP2C9 is 70.2 % activity.

With `CN1CCN(c2nc3ccc(NN=C(C#N)C#N)cc3o2)CC1` [Compound 14, (2-(4-methylpiperazin-1-yl)benzo[d]oxazol-6-yl)carbonohydrazonoyl dicyanide], the “CYP1A2 (% activity)” value at CYP1A2 is reported as 89.7 % activity. On CYP2C19, the “CYP2C19 (% activity)” value is 95.5 % activity. Moreover, the “CYP2D6 (% activity)” value at CYP2D6 was over 100 % activity. The “CYP2C9 (% activity)” value on CYP2C9 worked out at 88 % activity.

For `N#CC(C#N)=NNc1ccc2nc(N3CCNCC3)sc2c1` [Compound 24, (2-(piperazin-1-yl)benzo[d]thiazol-6-yl)carbonohydrazonoyl dicyanide], at CYP1A2, the “CYP1A2 (% activity)” value is 65.1 % activity. Further, the “CYP2C19 (% activity)” value at CYP2C19 is reported as 67.9 % activity. Also, the “CYP2D6 (% activity)” value at CYP2D6 was determined as 74.2 % activity. Besides, the “CYP2C9 (% activity)” value on CYP2C9 is listed as 72.0 % activity.

Consider `N#CC(C#N)=NNc1ccc2nc(N3CCNCC3)oc2c1` [Compound 25, (2-(piperazin-1-yl)benzo[d]oxazol-6-yl)carbonohydrazonoyl dicyanide], for which the “CYP1A2 (% activity)” value on CYP1A2 was determined as 87 % activity. The “CYP2C19 (% activity)” value at CYP2C19 came to 85.7 % activity. The “CYP2D6 (% activity)” value at CYP2D6 is on record as 93.5 % activity. For the same compound, the “CYP2C9 (% activity)” value on CYP2C9 is on record as 93.5 % activity.

`CC(C)N1CCN(c2nc3ccc(NN=C(C#N)C#N)cc3s2)CC1` [Compound 27, (2-(4-isopropylpiperazin-1-yl)benzo[d]thiazol-6-yl)carbonohydrazonoyl dicyanide]: the “CYP1A2 (% activity)” value at CYP1A2 came out at 95.1 % activity. Further, the “CYP2C19 (% activity)” value on CYP2C19 was 95.4 % activity. For the same compound, the “CYP2D6 (% activity)” value at CYP2D6 was 92.3 % activity. The “CYP2C9 (% activity)” value at CYP2C9 was found to be 58.5 % activity.
